“And” between values parts separate entries of the source, which are not always exact repeats. Equal values may be shown once. Marks after values point to notes of the source that are not given here.
What was measured:
[1] = system: GABAA receptor-ion channel complex (forebrain); test: In vivo inhibition of 3H-FNM binding; design: species or system mouse; conditions: female NMRI mice, test substance i.v., inhibition of specific [3H]FNM binding in forebrain
Experimental: 13B: In vivo inhibition of ^3H-FNM binding
[^3H]FNM can also be used for in vivo receptor labelling studies in mouse. Accumulation of [^3H]FNM binding will occur all over the brain as GABAA receptors are widely distributed.
All test substances used are solutions prepared in 10% TWEEN 80. Groups of three female NMRI mice (25 g) are injected i.v. via the tail vein with 5.0 μCi of [3H]FNM in 0.2 ml saline. Fifteen min after injection with [^3H]FNM the test substance is administered i.v. Twenty min after injection with [^3H]FNM, mice are killed by decapitation, the forebrains rapidly excised and homogenized in 12 ml of ice-cold 50 mM Tris-citrate, pH 7.1 using an Ultra-Turrax homogenizer. Three aliquots of 1 ml are immediately filtered through GF/C glass fibre filters and washed with 2×5 ml of ice-cold buffer. The amounts of radioactivity on the filters and in 200 μl of the homogenate are determined by conventional scintillation counting. Groups of untreated mice serves as controls. To determine non-specific binding groups of mice are injected with Clonazepam (25 mg/kg) i.p. 10 min before [3H]FNM injection. Specific binding is the amount of binding in controls minus the amount of binding in Clonazepam treated mice.
The ED50 value is determined from dose response curves. […] [formula]
where Co is specific binding in controls and Cx is the specific binding in mice treated with test substance.

[2] = molecular target: benzodiazepine receptor (GABAA receptor complex), cerebral cortex membranes; test: In vitro inhibition of 3H-flunitrazepam (3H-FNM) binding; conditions: inhibition of specific 3H-FNM (1 nM) binding, rat cerebral cortex membranes
Experimental: The GABA recognition site and the benzodiazepine modulatory unit can selectively be labelled with ^3H-muscimol and ^3H-flunitrazepam, respectively.
13A: In vitro inhibition of ^3H-flunitrazepam (^3H-FNM) binding
Preparations are performed at 0-4° C. unless otherwise indicated. Cerebral cortex from male Wistar rats (150-200 g) is homogenised for 5-10 sec in 20 ml Tris-HCl (30 mM, pH 7.4) using an Ultra-Turrax homogeniser. The suspension is centrifuged at 27,000× g for 15 min and the pellet is washed three times with buffer (centrifuged at 27,000× g for 10 min). The washed pellet is homogenized in 20 ml of buffer and incubated on a water bath (37° C.) for 30 min to remove endogenous GABA and then centrifuged for 10 min at 27,000× g. The pellet is then homogenized in buffer and centrifuged for 10 min at 27,000× g. The final pellet is resuspended in 30 ml buffer and the preparation is frozen and stored at −20° C.
The membrane preparation is thawed and centrifuged at 2° C. for 10 min at 27,000× g. The pellet is washed twice with 20 ml 50 mM Tris-citrate, pH 7.1 using an Ultra-Turrax homogeniser and centrifuged for 10 min at 27,000× g. The final pellet is resuspended in 50 mM Tris-citrate, pH 7.1 (500 ml buffer per g of original tissue), and then used for binding assays. Aliquots of 0.5 ml tissue are added to 25 μl of test solution and 25 μl of ^3H-FNM (1 nM, final concentration), mixed and incubated for 40 min at 2° C., Non-specific binding is determined using Clonazepam (1 μM, final concentration). After incubation the samples are added 5 ml of ice-cold buffer and poured directly onto Whatman GFIC glass fibre filters under suction and immediately washed with 5 ml ice-cold buffer. The amount of radioactivity on the filters is determined by conventional liquid scintillation counting. Specific binding is total binding minus non-specific binding.
The test value will be given as IC50 (the concentration (μM) of the test substance which inhibits the specific binding of ^3H-FNM by 50%). [formula]
Co is specific binding in control assays, and
Cx is the specific binding in the test assay.
(The calculations assume normal mass-action kinetics).

[3] = system: pigs; test: Evaluation of efficacy: anaesthesia after bolus injection; type: in vivo; conditions: pigs 25-30 kg; for Induction Time / Maintained anaesthesia / Normalising time following awakening: i.v. bolus, dose per compound as in Table 10 (0.03-3 mg/kg)
Experimental: Aqueous solutions of the test substances (50 mg/ml isotonic glucose) were administered to pigs (25-30 kg) as bolus injections. The actual dose of each substance is included in the table below.
These observations are compiled in Table 10 below. This table also provides comparative data for compounds of the prior art (WO 98/17651).

[4] = system: clonic convulsions induced by pentylenetetrazol (PTZ); test: PTZ clonic convulsions; type: in vivo; conditions: female NMRI mice; for ED100: i.v., dose increasing the PTZ threshold to 100 mg PTZ/kg (linear regression); for ptz threshold at 30 mg/kg: test substance 30 mg/kg i.v., PTZ infused after 5 min, vehicle threshold 37-39 mg PTZ/kg
Experimental: The purpose of this test is to show antagonism of clonic convulsions induced by pentylenetetrazol (PTZ). PTZ induces clonic convulsions in mice after i.v. infusion. Antagonism of PTZ-induced convulsions is a measure for the agonistic character of ligands for the benzodiazepine recognition site.
Female NMRI mice (Bomholdtgaard, Ry), 20 g, 6 mice in each group are administered i.v. with vehicle or test substance. After five minutes the PTZ-solution is infused intravenously at a speed of 0.7 ml/minute through a cannula placed in the tail vein. The time from initiation of the infusion to appearance of clonic convulsions is recorded.
The dose of PTZ required for inducing convulsion in each mouse is calculated as PTZ/kg body weight. Means ±sd for each experimental group of 6 mice is calculated. ED100 is calculated by linear regression expressing the dose increasing the PTZ threshold to 100 mg PTZ/kg.
The threshold of vehicle treated controls is in the range of 37-39 mg PTZ/kg. As a control in each series of experiments PTZ is infused into 6 vehicle treated mice.

SMILES	In vivo binding ED50 [1] [mg/kg]	IC50 [2] [nM]	Induction Time [3] [min]	Maintained anaesthesia [3]	Normalising time following awakening [3] [min]	ED100 [4] [mg/kg]	ptz threshold at 30 mg/kg [4] [mg/kg]	melting point	Observation on anaesthesia (footnote to Maintained anaesthesia) ([3]; bolus 3 mg/kg)
CCOC(=O)CN1CCN(c2cccc(-n3cnc4cc(C(=O)OCCOC)ccc43)c2)CC1 [Compound 1b, 2-Methoxyethyl 1-(3-(4-(ethoxy-carbonyl-methyl)-1-piperazinyl)-phenyl)-benzimidazole-5-carboxylate]	0.9	260	1.3	10^ min.	15	1.6	200		
CCOC(=O)CN1CCC(c2cccc(-n3cnc4cc(-c5ccoc5)ccc43)c2)CC1 [Compound 7g, 5-(3-Furanyl)-1-(3-(1-ethoxycarbonylmethyl-4-piperidyl)-phenyl)-benzimidazole]	1.4	0.9				1.2	200	114.5 to 115 °C and 114 to 115 °C	
CCOC(=O)N1CCN(c2cccc(-n3cnc4cc(-c5ccoc5)ccc43)c2)CC1 [Compound 7i, 5-(3-Furanyl)-1-(3-(1-ethoxycarbonyl-4-piperazinyl)-phenyl)-benzimidazole]	1.8	0.8				2.5	140	131 to 132 °C	
CC(=O)N1CCN(CCOC(=O)c2cccc(-n3cnc4cc(-c5ccoc5)ccc43)c2)CC1 [Compound 7j, 2-(1-Acetyl-4-piperazinyl)-ethyl 3-(5-(3-furanyl)-1-benzimidazolyl)-benzoate]	1.9	2.8	0.5	8^a min.	20	13	170		^aUneasy sleep

Reference: patent publication US6649609B2, “Benzimidazole derivatives and pharmaceutical compositions comprising these compounds” (Neurosearch A/S, priority 1999, dated 2003)
